From ChEMBL document CHEMBL2385066, “Cationic porphyrin-quinoxaline conjugate as a photochemically triggered novel cytotoxic agent” (Bioorg Med Chem Lett, 2013)
Active and inactive are the calls of the source. The rule behind the calls is not given here.

Key:
A549 [1] = assay: Phototoxicity against human A549 cells incubated for 24 hrs followed by exposure to visible-light for 10 mins measured after 24 hrs by WST assay; type: functional, cell-based
A549 [2] = assay: Phototoxicity against human A549 cells incubated for 24 hrs followed by UV-irradiation for 10 mins measured after 24 hrs by WST assay; type: functional, cell-based
DNA [3] = assay: Binding affinity to calf thymus DNA; type: nucleic-acid assay; conditions: Bos taurus
DNA [4] = assay: Binding affinity to calf thymus DNA assessed as blue shift at 2 uM by fluorescence spectroscopic analysis; type: nucleic-acid assay; conditions: Bos taurus
Escherichia coli [5] = assay: Induction of Escherichia coli pBR322 DNA cleavage assessed as conversion of supercoiled form to nicked circular form at 50 uM incubated for 30 mins followed by exposure to visible-light for 1 to 60 mins by agarose gel electrophoretic analysis
DNA [6] = assay: Binding affinity to calf thymus DNA assessed as hypochromicity at 2 uM by UV-vis absorption titration relative to control; type: nucleic-acid assay; conditions: Bos taurus
DNA [7] = assay: Binding affinity to calf thymus DNA assessed as red shift in Soret region at 2 uM by UV-vis absorption titration; type: nucleic-acid assay; conditions: Bos taurus
Escherichia coli [8] = assay: Induction of Escherichia coli pBR322 DNA cleavage assessed as conversion of supercoiled form to nicked circular form at 50 uM incubated for 30 mins followed by UV-irradiation for 1 to 60 mins by agarose gel electrophoretic analysis
A549 [9] = assay: Ratio of TMPyP IC50 to compound IC50 for human A549 cells incubated for 24 hrs followed by exposure to visible-light for 10 mins measured after 24 hrs by WST assay; type: functional
DNA [10] = assay: Binding affinity to calf thymus DNA assessed as decrease in fluorescence intensity at 2 uM by spectroscopic analysis; type: nucleic-acid assay; conditions: Bos taurus
[11] = Homo sapiens, A549, light or radiation study

O=C(Nc1ccc(-c2c3nc(c(-c4ccncc4)c4ccc([nH]4)c(-c4ccncc4)c4nc(c(-c5ccncc5)c5ccc2[nH]5)C=C4)C=C3)cc1)c1cnc2ccccc2n1
IC50 (A549 [1]; [11]): 0.18 µM | IC50 (A549 [2]; [11]): 0.17 µM

C1=Cc2nc1c(-c1ccccc1)c1nc(c(-c3ccccc3)c3ccc([nH]3)c(-c3ccccc3)c3ccc([nH]3)c2-c2ccccc2)C=C1 [TETRAPHENYLPORPHYRIN]
IC50 (A549 [1]; [11]): > 20 µM | IC50 (A549 [2]; [11]): > 20 µM

C[n+]1ccc(-c2c3nc(c(-c4cc[n+](C)cc4)c4ccc([nH]4)c(-c4cc[n+](C)cc4)c4nc(c(-c5ccc(NC(=O)c6cnc7ccccc7n6)cc5)c5ccc2[nH]5)C=C4)C=C3)cc1.[I-].[I-].[I-]
K (DNA [3]): 1.26 ×10⁶ /M | Activity (DNA [4]): Active | IC50 (A549 [1]; a549): 0.06 µM | Activity (Escherichia coli [5]): Active | Activity (DNA [6]): 39% | IC50 (A549 [2]; a549): 0.16 µM | Activity (DNA [7]): Active | Activity (Escherichia coli [8]): Active | Ratio IC50 (A549 [9]): 5 | Activity (DNA [10]): Active

C[n+]1ccc(-c2c3nc(c(-c4cc[n+](C)cc4)c4ccc([nH]4)c(-c4cc[n+](C)cc4)c4ccc([nH]4)c(-c4cc[n+](C)cc4)c4nc2C=C4)C=C3)cc1 [TMPYP4]
K (DNA [3]): 2.5 ×10⁶ /M | IC50 (A549 [1]; [11]): 0.3 µM | IC50 (A549 [2]; [11]): 1.24 µM

O=C(Nc1ccc(-c2c3nc(c(-c4ccccc4)c4ccc([nH]4)c(-c4ccccc4)c4nc(c(-c5ccccc5)c5ccc2[nH]5)C=C4)C=C3)cc1)c1cnc2ccccc2n1
K (DNA [3]): 1.98 ×10⁵ /M | IC50 (A549 [1]; [11]): > 20 µM | Activity (Escherichia coli [5]): inactive | IC50 (A549 [2]; [11]): > 20 µM | Activity (Escherichia coli [8]): Active
